Experimental data from the NIST ThermoML archive (doi:10.1016/j.jct.2015.12.025).

Assays:
[1] = refractive index (Na D-line) (dimensionless); xn = mol fraction of the nth substance listed; details: 102 kPa, Liquid, Standard Abbe refractometry
[2] = xn = mol fraction of the nth substance listed; details: 102 kPa, Liquid, Vibrating tube method

CC(C)(C)c1ccccc1 [(1,1-dimethylethyl)benzene] + C[Si]1(CCC(F)(F)F)O[Si](C)(CCC(F)(F)F)O[Si](C)(CCC(F)(F)F)O1
Details	mass density, 308.15 K [kg/m3]	mass density, 313.15 K [kg/m3]	mass density, 318.15 K [kg/m3]	mass density, 323.15 K [kg/m3]	refractive index, 308.15 K	refractive index, 313.15 K	refractive index, 318.15 K	refractive index, 323.15 K
[1], x2 = 0	–	–	–	–	1.48509	1.48256	1.48007	1.47754
[1], x2 = 0.0476	–	–	–	–	1.47051	1.46805	1.4656	1.46312
[1], x2 = 0.1	–	–	–	–	1.45684	1.45441	1.452	1.4496
[1], x2 = 0.15	–	–	–	–	1.44555	1.44313	1.44079	1.4384
[1], x2 = 0.2	–	–	–	–	1.4356	1.43327	1.43091	1.42856
[1], x2 = 0.25	–	–	–	–	1.42681	1.4245	1.42218	1.41985
[1], x2 = 0.2999	–	–	–	–	1.41901	1.41671	1.41444	1.41212
[1], x2 = 0.3499	–	–	–	–	1.41199	1.40972	1.40747	1.40521
[1], x2 = 0.3999	–	–	–	–	1.40568	1.40344	1.4012	1.39899
[1], x2 = 0.45	–	–	–	–	1.39992	1.3977	1.39552	1.3933
[1], x2 = 0.5	–	–	–	–	1.39466	1.39251	1.39033	1.38813
[1], x2 = 0.5498	–	–	–	–	1.38992	1.38774	1.38566	1.3834
[1], x2 = 0.6	–	–	–	–	1.38555	1.38337	1.38127	1.37906
[1], x2 = 0.6499	–	–	–	–	1.38151	1.37934	1.37726	1.37512
[1], x2 = 0.7001	–	–	–	–	1.37773	1.37562	1.37352	1.37141
[1], x2 = 0.75	–	–	–	–	1.37427	1.3722	1.3701	1.36801
[1], x2 = 0.7995	–	–	–	–	1.37106	1.36902	1.36693	1.36485
[1], x2 = 0.8499	–	–	–	–	1.36804	1.36599	1.36394	1.36193
[1], x2 = 0.8954	–	–	–	–	1.36548	1.36342	1.36142	1.35939
[1], x2 = 0.9485	–	–	–	–	1.36268	1.36065	1.35863	1.35667
[2], x2 = 0	854.12	849.98	845.87	841.72	–	–	–	–
[2], x2 = 0.0476	894.32	889.93	885.61	881.21	–	–	–	–
[2], x2 = 0.1	933.32	928.72	924.21	919.56	–	–	–	–
[2], x2 = 0.15	966.19	961.47	956.76	951.94	–	–	–	–
[2], x2 = 0.2	995.76	990.72	985.86	980.83	–	–	–	–
[2], x2 = 0.25	1022.23	1017.01	1012	1006.81	–	–	–	–
[2], x2 = 0.2999	1046.09	1040.82	1035.68	1030.38	–	–	–	–
[2], x2 = 0.3499	1067.85	1062.39	1057.13	1051.7	–	–	–	–
[2], x2 = 0.3999	1087.64	1082.11	1076.69	1071.16	–	–	–	–
[2], x2 = 0.45	1105.84	1100.2	1094.66	1089.02	–	–	–	–
[2], x2 = 0.5	1122.55	1116.79	1111.16	1105.4	–	–	–	–
[2], x2 = 0.5498	1137.88	1132.05	1126.36	1120.47	–	–	–	–
[2], x2 = 0.6	1152.22	1146.28	1140.41	1134.47	–	–	–	–
[2], x2 = 0.6499	1165.5	1159.37	1153.46	1147.45	–	–	–	–
[2], x2 = 0.7001	1177.76	1171.65	1165.58	1159.5	–	–	–	–
[2], x2 = 0.75	1189.19	1183.03	1176.83	1170.74	–	–	–	–
[2], x2 = 0.7995	1199.87	1193.61	1187.3	1181.13	–	–	–	–
[2], x2 = 0.8499	1209.99	1203.62	1197.27	1190.93	–	–	–	–
[2], x2 = 0.8954	1218.66	1212.17	1205.76	1199.34	–	–	–	–
[2], x2 = 0.9485	1228.1	1221.55	1215.06	1208.56	–	–	–	–
